Like-named read-outs stand apart in the source and are kept apart here.
How the values were obtained:
[1] = tested on: nuclear β-catenin in C2C12 cells; assay: cells; format: cell-based
[2] = tested on: endothelial tube formation in co-cultures of ECFCs and ADSCs treated with VEGF; assay: cells; format: cell-based, human
HCT116 = assay: cells; format: cell-based
DLD-1 = assay: cells; format: cell-based
hKDR = target: T1, hKDR (Homo sapiens, UniProt P35968); assay: Cerep LANCE kinase assay hKDR (S1 assay 32); format: biochemical; details: read-out: KDR
T1 construct: purchased Cerep (LANCE kinase assay platform, contract assay)
T1 sequence (P35968 20-1356): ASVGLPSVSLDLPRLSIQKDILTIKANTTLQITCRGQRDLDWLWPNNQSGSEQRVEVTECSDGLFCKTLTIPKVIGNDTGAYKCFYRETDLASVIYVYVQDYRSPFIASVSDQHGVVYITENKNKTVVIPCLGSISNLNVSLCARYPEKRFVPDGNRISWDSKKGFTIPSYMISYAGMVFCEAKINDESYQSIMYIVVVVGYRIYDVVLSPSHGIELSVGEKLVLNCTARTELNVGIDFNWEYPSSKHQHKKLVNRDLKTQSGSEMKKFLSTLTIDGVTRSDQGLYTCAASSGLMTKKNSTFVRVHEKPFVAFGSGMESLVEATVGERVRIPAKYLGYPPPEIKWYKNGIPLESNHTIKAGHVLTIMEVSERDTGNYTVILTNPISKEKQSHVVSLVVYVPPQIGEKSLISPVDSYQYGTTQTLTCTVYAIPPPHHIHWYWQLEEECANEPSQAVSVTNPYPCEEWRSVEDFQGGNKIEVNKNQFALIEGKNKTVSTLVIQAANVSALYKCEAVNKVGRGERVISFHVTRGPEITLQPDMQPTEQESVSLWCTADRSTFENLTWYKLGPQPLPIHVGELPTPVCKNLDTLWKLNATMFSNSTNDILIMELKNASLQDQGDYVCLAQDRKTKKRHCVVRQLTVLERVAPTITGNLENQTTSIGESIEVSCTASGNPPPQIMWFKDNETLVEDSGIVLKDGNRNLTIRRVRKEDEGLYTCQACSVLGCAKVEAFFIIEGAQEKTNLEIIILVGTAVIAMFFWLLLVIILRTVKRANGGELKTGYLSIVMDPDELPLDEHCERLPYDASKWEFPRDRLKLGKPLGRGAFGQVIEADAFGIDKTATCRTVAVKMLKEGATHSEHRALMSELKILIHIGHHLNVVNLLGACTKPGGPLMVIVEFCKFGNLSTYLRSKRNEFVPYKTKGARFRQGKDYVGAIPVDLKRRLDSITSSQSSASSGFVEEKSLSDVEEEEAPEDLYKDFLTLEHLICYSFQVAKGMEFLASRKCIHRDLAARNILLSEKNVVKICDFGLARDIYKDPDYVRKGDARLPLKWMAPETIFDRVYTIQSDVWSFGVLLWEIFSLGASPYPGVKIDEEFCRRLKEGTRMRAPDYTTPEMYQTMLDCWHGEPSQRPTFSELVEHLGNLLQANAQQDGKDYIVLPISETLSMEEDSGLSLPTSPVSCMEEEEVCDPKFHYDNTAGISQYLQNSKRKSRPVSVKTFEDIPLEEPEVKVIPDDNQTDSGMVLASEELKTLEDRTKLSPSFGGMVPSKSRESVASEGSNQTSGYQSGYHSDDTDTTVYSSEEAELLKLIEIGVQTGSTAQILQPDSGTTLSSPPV

hFLT3 = target: T2, hFLT3 (Homo sapiens, UniProt P36888); assay: Cerep LANCE kinase assay hFLT3 (S1 assay 35); format: biochemical; details: read-out: FLT3
T2 construct: purchased Cerep (LANCE kinase assay platform, contract assay)
T2 sequence (P36888 27-993): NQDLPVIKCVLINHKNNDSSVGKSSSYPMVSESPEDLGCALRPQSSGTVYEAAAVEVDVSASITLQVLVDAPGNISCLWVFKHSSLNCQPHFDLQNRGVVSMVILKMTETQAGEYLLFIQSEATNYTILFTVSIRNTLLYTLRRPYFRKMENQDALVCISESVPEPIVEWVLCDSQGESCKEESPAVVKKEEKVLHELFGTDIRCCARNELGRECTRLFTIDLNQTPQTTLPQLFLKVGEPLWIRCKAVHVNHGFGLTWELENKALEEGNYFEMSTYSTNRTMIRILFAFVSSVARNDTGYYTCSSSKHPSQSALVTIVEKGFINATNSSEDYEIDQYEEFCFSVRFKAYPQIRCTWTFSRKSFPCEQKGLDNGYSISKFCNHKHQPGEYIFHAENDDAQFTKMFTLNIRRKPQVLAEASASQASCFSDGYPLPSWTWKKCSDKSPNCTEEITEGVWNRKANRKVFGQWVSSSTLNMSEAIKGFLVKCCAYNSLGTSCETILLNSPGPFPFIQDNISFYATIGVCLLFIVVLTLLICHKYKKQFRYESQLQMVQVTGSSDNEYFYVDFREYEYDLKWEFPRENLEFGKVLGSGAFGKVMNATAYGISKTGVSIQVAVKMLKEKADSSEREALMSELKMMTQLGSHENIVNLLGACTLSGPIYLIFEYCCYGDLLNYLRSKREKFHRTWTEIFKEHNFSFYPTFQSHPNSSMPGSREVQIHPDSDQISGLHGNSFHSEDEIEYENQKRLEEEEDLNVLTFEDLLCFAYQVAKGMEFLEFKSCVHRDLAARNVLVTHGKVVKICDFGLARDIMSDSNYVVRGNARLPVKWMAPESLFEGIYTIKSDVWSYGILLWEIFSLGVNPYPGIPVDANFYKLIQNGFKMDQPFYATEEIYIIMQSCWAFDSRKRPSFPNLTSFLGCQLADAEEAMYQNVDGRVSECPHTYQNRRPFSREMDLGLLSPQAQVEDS

NCI-H716 cells = assay: cells; format: cell-based, Human
SW480 = assay: cells; format: cell-based
[3] = tested on: HCT116 cells treated with a GSK3β inhibitor; assay: cells; format: cell-based
INS-1E cells = assay: cells; format: cell-based, rat
hp70S6K1 (RPS6KB1) = target: T3, hp70S6K1 (RPS6KB1) (Homo sapiens, UniProt P23443); assay: Cerep LANCE kinase assay hp70S6K1 (S1 assay 31); format: biochemical; details: read-out: p70S6K1
T3 construct: purchased Cerep (LANCE kinase assay platform, contract assay)
T3 sequence (P23443 whole entry): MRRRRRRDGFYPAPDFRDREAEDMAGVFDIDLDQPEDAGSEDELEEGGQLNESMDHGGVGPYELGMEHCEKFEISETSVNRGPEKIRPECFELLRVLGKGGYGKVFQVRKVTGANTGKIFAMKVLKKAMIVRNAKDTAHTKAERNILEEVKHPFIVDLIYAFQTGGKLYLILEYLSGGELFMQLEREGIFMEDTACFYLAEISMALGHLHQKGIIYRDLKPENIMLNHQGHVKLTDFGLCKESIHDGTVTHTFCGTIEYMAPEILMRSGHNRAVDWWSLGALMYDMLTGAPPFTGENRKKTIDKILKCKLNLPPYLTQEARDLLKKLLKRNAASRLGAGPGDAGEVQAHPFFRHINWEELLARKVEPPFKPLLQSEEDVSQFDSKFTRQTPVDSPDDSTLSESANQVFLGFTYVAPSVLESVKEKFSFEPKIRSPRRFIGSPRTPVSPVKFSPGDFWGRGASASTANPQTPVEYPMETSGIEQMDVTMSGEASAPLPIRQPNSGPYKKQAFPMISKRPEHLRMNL

hJAK2 = target: T4, hJAK2 (Homo sapiens, UniProt O60674); assay: Cerep LANCE kinase assay hJAK2 (S1 assay 33); format: biochemical; details: read-out: JAK2
T4 construct: purchased Cerep (LANCE kinase assay platform, contract assay)
T4 sequence (O60674 whole entry): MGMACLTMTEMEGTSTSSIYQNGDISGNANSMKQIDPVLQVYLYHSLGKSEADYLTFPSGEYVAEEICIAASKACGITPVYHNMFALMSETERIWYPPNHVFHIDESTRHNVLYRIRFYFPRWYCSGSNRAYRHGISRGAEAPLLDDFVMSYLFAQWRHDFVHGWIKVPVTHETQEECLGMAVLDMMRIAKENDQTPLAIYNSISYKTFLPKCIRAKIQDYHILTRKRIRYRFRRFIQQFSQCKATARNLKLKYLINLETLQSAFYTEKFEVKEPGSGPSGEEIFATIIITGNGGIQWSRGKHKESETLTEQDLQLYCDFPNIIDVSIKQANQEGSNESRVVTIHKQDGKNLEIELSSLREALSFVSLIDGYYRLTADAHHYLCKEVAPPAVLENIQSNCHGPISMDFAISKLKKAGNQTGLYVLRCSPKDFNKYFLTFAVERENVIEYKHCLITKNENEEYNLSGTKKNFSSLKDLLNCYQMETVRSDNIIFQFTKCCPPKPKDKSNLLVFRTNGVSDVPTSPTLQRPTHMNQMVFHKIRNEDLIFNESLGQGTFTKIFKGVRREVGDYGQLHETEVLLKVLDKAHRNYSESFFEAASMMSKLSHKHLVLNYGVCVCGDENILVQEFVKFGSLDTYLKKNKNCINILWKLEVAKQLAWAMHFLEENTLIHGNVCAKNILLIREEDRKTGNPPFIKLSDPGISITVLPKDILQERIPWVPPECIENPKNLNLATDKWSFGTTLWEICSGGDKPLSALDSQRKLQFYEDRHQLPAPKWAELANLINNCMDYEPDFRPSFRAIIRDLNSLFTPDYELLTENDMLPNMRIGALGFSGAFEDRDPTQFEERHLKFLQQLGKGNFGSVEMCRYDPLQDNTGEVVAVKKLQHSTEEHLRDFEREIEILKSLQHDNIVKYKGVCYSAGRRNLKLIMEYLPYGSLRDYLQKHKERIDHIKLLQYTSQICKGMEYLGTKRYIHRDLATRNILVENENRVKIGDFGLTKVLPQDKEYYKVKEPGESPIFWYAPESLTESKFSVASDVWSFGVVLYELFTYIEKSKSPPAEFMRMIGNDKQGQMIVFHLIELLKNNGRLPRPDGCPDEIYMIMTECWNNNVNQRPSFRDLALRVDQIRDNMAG

HeLa cells = assay: cells; format: cell-based; details: HeLa, read-out: CellCycle G2/M
hGSK3b = target: T5, hGSK3b (Homo sapiens, UniProt P49841); assay: Cerep LANCE kinase assay hGSK3b (S1 assay 34); format: biochemical; details: read-out: GSK3b
T5 construct: purchased Cerep (LANCE kinase assay platform, contract assay)
T5 sequence (P49841 whole entry): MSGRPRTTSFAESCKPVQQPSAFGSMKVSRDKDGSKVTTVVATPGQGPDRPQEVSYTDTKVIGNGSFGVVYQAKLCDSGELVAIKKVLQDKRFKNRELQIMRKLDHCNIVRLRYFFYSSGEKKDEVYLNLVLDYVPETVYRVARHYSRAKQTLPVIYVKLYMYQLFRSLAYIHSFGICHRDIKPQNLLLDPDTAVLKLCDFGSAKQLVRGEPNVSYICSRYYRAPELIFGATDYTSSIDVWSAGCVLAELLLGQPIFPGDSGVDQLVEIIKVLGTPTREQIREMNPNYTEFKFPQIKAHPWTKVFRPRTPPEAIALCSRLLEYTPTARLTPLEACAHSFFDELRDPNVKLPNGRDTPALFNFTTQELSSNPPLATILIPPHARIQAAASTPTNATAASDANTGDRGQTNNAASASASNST

[4] = Mus musculus, C2C12, read-out: Wnt Pathway
[5] = Homo sapiens, read-out: Anti-Angiogenesis
[6] = Homo sapiens, HCT-116, read-out: Basal_Viability ATP HCT116
[7] = Homo sapiens, DLD-1, read-out: Basal_Viability ATP DLD-1
[8] = Homo sapiens, NCI-H716, read-out: GLP 1 Secretion
[9] = Homo sapiens, SW480, read-out: Basal_Viability ATP SW480
[10] = Homo sapiens, HCT-116, read-out: GSK3b inh pretreated_Viability ATP HCT116
[11] = Rattus norvegicus, INS-1E, read-out: Insulin Secretion
[12] = basal, HCT116, read-out: Basal_Viability ATP HCT116
[13] = basal, DLD-1, read-out: Basal_Viability ATP DLD-1
[14] = S2 Table; module primary assay; 20 / 20.1 codes per legend; read-out: GLP 1 Secretion
[15] = basal, SW480, read-out: Basal_Viability ATP SW480
[16] = HCT116 pretreated with GSK3b inhibitor, read-out: GSK3b inh pretreated_Viability ATP HCT116
[17] = S2 Table; module primary assay; 20 / 20.1 codes per legend; read-out: Insulin Secretion
[18] = S2 Table, 20 = no response at highest concentration

SMILES	IC50 (hKDR; kinase assay)	IC50 (hFLT3; kinase assay)	IC50 (hp70S6K1 (RPS6KB1); kinase assay)	IC50 (hJAK2; kinase assay)	IC50 (hGSK3b; kinase assay)	EC50 [1, 4]	IC50 [2, 5]	IC50 (HCT116; [6])	IC50 (DLD-1; [7])	IC50 (hKDR)	IC50 (hFLT3)	EC50 (NCI-H716 cells; [8])	IC50 (SW480; [9])	IC50 [3, 10]	EC50 (INS-1E cells; [11])	IC50 (hp70S6K1 (RPS6KB1))	IC50 (hJAK2)	EC50 (HeLa cells; Homo sapiens)	IC50 (hGSK3b)	also measured
C[C@@]12C(=O)OC(=O)[C@]1(C)[C@H]1CC[C@@H]2O1 [Cantharidine]	> 20 µM	> 20 µM	> 20 µM	> 20 µM	> 20 µM															EC50 ([1]; Mus musculus, C2C12; read-out: Wnt Pathway): 1.49 µM; IC50 ([2]; Homo sapiens; read-out: Anti-Angiogenesis): 1.23 µM; IC50 (HCT116; Homo sapiens, HCT-116, basal, HCT116, read-out: Basal_Viability ATP HCT116): 7.71 µM; IC50 (DLD-1; Homo sapiens, basal, DLD-1, read-out: Basal_Viability ATP DLD-1): 1.12 µM; EC50 (NCI-H716 cells; Homo sapiens, NCI-H716; read-out: GLP 1 Secretion): 6.68 µM; IC50 (SW480; Homo sapiens, basal, SW480, read-out: Basal_Viability ATP SW480): 1.86 µM; IC50 ([3]; Homo sapiens, HCT-116, HCT116 pretreated with GSK3b inhibitor, read-out: GSK3b inh pretreated_Viability ATP HCT116): 3.03 µM; EC50 (INS-1E cells; Rattus norvegicus, INS-1E; read-out: Insulin Secretion): > 10 µM; EC50 (HeLa cells; Homo sapiens, S2 Table, 20 = no response at highest concentration): > 10 µM
CCC(C)n1ncn(-c2ccc(N3CCN(c4ccc(OCC5COC(Cn6cncn6)(c6ccc(Cl)cc6Cl)O5)cc4)CC3)cc2)c1=O (stereo not shown) [itraconazole]						> 10 µM	1.55 µM	8.85 µM	> 20 µM	> 20 µM	> 20 µM	> 10 µM	4.33 µM	8.69 µM	> 10 µM	> 20 µM	> 20 µM	> 10 µM	> 20 µM	
CC(=O)[C@]1(O)Cc2c(O)c3c(c(O)c2[C@@H](O[C@H]2C[C@H](N)[C@H](O)[C@H](C)O2)C1)C(=O)c1ccccc1C3=O [Idarubicin]	> 20 µM	> 20 µM	> 20 µM	> 20 µM	> 20 µM	0.1 µM	0.0208 µM	0.0667 µM	0.387 µM			> 10 µM	4.75 µM	0.1 µM	> 10 µM			> 10 µM		
CCc1nc(N)nc(N)c1-c1ccc(Cl)cc1 [pyrimethamine, reference compound]	> 20 µM	> 20 µM	> 20 µM	> 20 µM	> 20 µM	0.0677 µM		18.2 µM					12.5 µM					> 10 µM		EC50 ([1]; Mus musculus, C2C12, read-out: Wnt pot. EC50): 0.068 µM; IC50 ([2]; Homo sapiens, read-out: Anti-Angio IC50): > 10 µM; IC50 (HCT116; Homo sapiens, HCT-116, 72 h, read-out: HCT-116 viab. IC50): 18.2 µM; IC50 (DLD-1; Homo sapiens, DLD-1, 72 h, read-out: DLD-1 viab. IC50): > 20 µM; EC50 (NCI-H716 cells; Homo sapiens, NCI-H716, read-out: GLP1 sec. EC50): > 10 µM; IC50 (SW480; Homo sapiens, SW480, 72 h, read-out: SW480 viab. IC50): 12.5 µM; IC50 ([3]; Homo sapiens, HCT-116, 72 h, read-out: HCT-116 (GSK3β) viab. IC50): > 20 µM; EC50 (INS-1E cells; Rattus norvegicus, INS-1E, read-out: Ins. sec. EC50): > 10 µM
C[n+]1c2cc(N)ccc2cc2ccc(N)cc21 [Acriflavinium chloride]	> 20 µM	> 20 µM	6.57 µM	> 20 µM	> 20 µM															EC50 ([1]; read-out: Wnt Pathway): 1.6 µM; IC50 ([2]; S2 Table; module primary assay; 20 = no response at highest concentration, 20.1 = inactive in single concentration testing; read-out: Anti-Angiogenesis): > 10 µM; IC50 (HCT116; [12]): 10.3 µM; IC50 (DLD-1; [13]): 4.03 µM; EC50 (NCI-H716 cells; [14]): > 10 µM; IC50 (SW480; [15]): 1.26 µM; IC50 [3, 16]: 4.36 µM; EC50 (INS-1E cells; [17]): > 10 µM; EC50 (HeLa cells; [18]): > 10 µM
CCN(CC)CCNc1ccc(CO)c2sc3ccccc3c(=O)c12 [Hycanthonum]	> 20 µM	> 20 µM	17.1 µM	> 20 µM	> 20 µM															EC50 ([1]; read-out: Wnt Pathway): 2.67 µM; IC50 ([2]; read-out: Anti-Angiogenesis): 8.35 µM; IC50 (HCT116; [12]): 8.59 µM; IC50 (DLD-1; [13]): > 20 µM; EC50 (NCI-H716 cells; [14]): > 10 µM; IC50 (SW480; [15]): 6.84 µM; IC50 [3, 16]: > 20 µM; EC50 (INS-1E cells; [17]): > 10 µM; EC50 (HeLa cells; [18]): > 10 µM
CCCCC1C(=O)N(c2ccccc2)N(c2ccc(O)cc2)C1=O (stereo not shown) [Oxyphenbutazone]										> 20 µM	> 20 µM			> 20 µM		> 20 µM	> 20 µM		> 20 µM	EC50 ([1]; Mus musculus, C2C12, IC50 / EC50; C2C12 beta-catenin translocation; read-out: Wnt Pathway): 4.92 µM; IC50 ([2]; Homo sapiens, IC50 / EC50; endothelial tube area, ADSC/ECFC co-culture; read-out: Anti-Angiogenesis): 3.29 µM; IC50 (HCT116; Homo sapiens, HCT-116, basal, read-out: Basal_Viability ATP HCT116): 15.7 µM; IC50 (DLD-1; Homo sapiens, DLD-1, basal, read-out: Basal_Viability ATP DLD-1): 5.87 µM; EC50 (NCI-H716 cells; Homo sapiens; IC50 / EC50; NCI-H716; read-out: GLP 1 Secretion): > 10 µM; IC50 (SW480; Homo sapiens, SW480, basal, read-out: Basal_Viability ATP SW480): 3.01 µM; EC50 (INS-1E cells; Rattus norvegicus; IC50 / EC50; INS-1E; read-out: Insulin Secretion): > 10 µM; EC50 (HeLa cells; Homo sapiens, IC50 / EC50): > 10 µM
CC[C@]1(O)C[C@H]2CN(CCc3c([nH]c4ccccc34)[C@@](C(=O)OC)(c3cc4c(cc3OC)N(C=O)[C@H]3[C@@](O)(C(=O)OC)[C@H](OC(C)=O)[C@]5(CC)C=CCN6CC[C@]43[C@@H]65)C2)C1 [vincristine]						0.004 µM	0.0065 µM	0.126 µM	0.786 µM	> 20 µM	> 20 µM	> 10 µM	3.08 µM	0.0667 µM	> 10 µM	> 20 µM	> 20 µM	0.0059 µM	> 20 µM	

Reference: PMC4503722, “Novel Phenotypic Outcomes Identified for a Public Collection of Approved Drugs from a Publicly Accessible Panel of Assays” (PLoS ONE, 2015)
